The values below come from patent publication US7253286B2, “Nitrogen-containing aromatic derivatives” (Eisai Co., Ltd, priority 2000, dated 2007).

Experiment [1] deals with Human Umbilical Vein Endothelial Cells (HUVECs). The experiment is described as follows: Inhibition against invasive tube formation by vascular endothelial cells in response to stimulation by angiogenic factor mixture. The settings on record: HUVEC on fibrin gel, EGF/FGF2/VEGF/HGF/TNF-α mixture, 6th day, MTT staining; for number of tubes formed in the fibrin gel (score) at 0.01 μM: test substance 0.01 μM; for number of tubes formed in the fibrin gel (score) at 0.1 μM: test substance 0.1 μM; for number of tubes formed in the fibrin gel (score) at 1.0 μM: test substance 1.0 μM. Format: cell-based. More on the design: key: the number of tubes formed in the absence of the test substance was designated as +++; scored on the 5-level scale of +++, ++, +, +/−, −; scored on the 5-level scale of +++, ++, +, +/−, −; scored on the 5-level scale of +++, ++, +, +/−, −; − was assigned if absolutely no tubes formed. The procedure: Inhibition Against Invasive Tube Formation by Vascular Endothelial Cells in Response to Stimulation by Angiogenic Factor Mixture
Human Umbilical Vein Endothelial Cells (HUVECs) were isolated according to a reported method (Shinseikagaku Jikken Koza [New Biochemistry Experiment Lectures], “Saibo Baiyo Gijutsu” [Cell Culturing Techniques], p.197–202), and were cultured in a 5% CO2 incubator (37° C.) using EGM-2 medium (purchased from Clonetics Corp.) until the cells reached confluency. After adding 0.4 ml of bovine fibrinogen (purchased from Sigma Co.) to the inner well of a Transwell culturing plate (purchased from Coster Inc.), it was hardened with 0.7 units/ml of thrombin (purchased from Sigma Co.). The HUVECs were recovered using trypsin-EDTA and then suspended in human endothelial serum free medium basal growth medium (hereinafter abbreviated as SFM, purchased from GIBCO BRL), and 0.4 ml of the cell suspension (1.4×10^5 cells) was seeded onto the hardened fibrin gel and cultured for approximately 4 hours in a 5% CO2 incubator (37° C.). After 4 hours, there was added to the outer chamber of the Transwell 1.5 ml of an SFM solution containing a mixture of angiogenic factors {10 ng/ml EGF (purchased from GIBCO BRL), 30 ng/ml FGF2 (purchased from GIBCO BRL), 75 ng/ml VEGF (purchased from Wako Pure Chemical Industries Co., Ltd.), 50 ng/ml HGF (purchased from R&D Co.) and 7.5 ng/ml TNF-α (purchased from Genzyme Corp.) [The concentrations of the angiogenic factors differed slightly according to the HUVEC lot.]} and a diluted test substance, and culturing was carried out in a 5% CO2 incubator (37° C.). On the 2nd and 4th days after adding the test substance, the medium was exchanged with 1.5 ml of freshly prepared SFM solution containing the angiogenic factor mixture and test substance. Upon aspirating off the culture supernatant in the inner well on the 6th day after the initial addition of the test substance, 0.4 ml of a 3.3 mg/ml MTT solution dissolved in PBS (purchased from Sigma Corp.) was added and culturing was performed for approximately 1 hour in a 5% CO2 incubator (37° C.). The number of tubes formed in the fibrin gel stained with MTT was scored based on microscope observation. Specifically, the number of tubes formed in the absence of the test substance was designated as +++, while − was assigned if absolutely no tubes formed. The number of tubes formed in the presence of the test substance was scored on the 5-level scale of +++, ++, +, +/−, − to evaluate the strength of inhibition of the test substance.

For experiment [2] the test system is unchanged. The experiment is described as follows: Inhibition against sandwich tube formation by vascular endothelial cells in response to stimulation by VEGF. The class given is cell-based. The settings on record: HUVEC in collagen gel sandwich, stimulation by VEGF (25 ng/ml VEGF and 10 ng/ml EGF), 4th day, total tube length, read-out: IC50 (concentration required for 50% inhibition of tube formation). As for the experimental part:
Inhibition Against Sandwich Tube Formation by Vascular Endothelial Cells in Response to Stimulation by Angiogenic Factor
Human Umbilical Vein Endothelial Cells (HUVECS) were isolated by the same method as in Pharmacological Test Example 1, and were cultured in a 5% CO2 incubator (37° C.) using EGM-2 medium (purchased from Clonetics Corp.) until the cells reached confluency.
An ice-cooled mixture of collagen: 5× RPMI 1640: reconstitution buffer (all purchased from Nitta Gelatin, Inc.) at 7:2:1 was dispensed at 0.4 ml into each well of a 24-well plate, and then stationed for 40 minutes in a 5% CO2 incubator (37° C.) for gelling. The HUVECs were recovered using trypsin-EDTA and then suspended in human endothelial serum free medium (SFM, purchased from GIBCO BRL) containing added angiogenic factors [20 ng/ml FGF2 (purchased from GIBCO BRL) and 10 ng/ml EGF (purchased from GIBCO BRL), or 25 ng/ml VEGF (purchased from Wako Pure Chemical Industries Co., Ltd.) and 10 ng/ml EGF, or 30 ng/ml HGF (purchased from R&D Co.) and 10 ng/ml EGF], and the cell suspension was added at 0.4 ml to each well (with the cell counts differing slightly according to the HUVEC lot), and cultured overnight in a 5% CO2 incubator (37° C.). On the following day, the medium on the upper layer was aspirated off, and then 0.4 ml of an ice-cooled mixture of collagen: 5× RPMI 1640: reconstitution buffer (all purchased from Nitta Gelatin, Inc.) at 7:2:1 was superposed into each well prior to stationing for 4 hours in a 5% CO2 incubator (37° C.) for gelling. After adding 1.5 ml of an SFM solution containing each of the aforementioned angiogenic factors and a diluted test substance onto the upper layer, culturing was performed in a 5% CO2 incubator (37° C.). Upon aspirating off the culture supernatant in each well on the 4th day after addition of the test substance, 0.4 ml of a 3.3 mg/ml MTT solution dissolved in PBS (purchased from Sigma Corp.) was added to each well and culturing was performed for approximately 2 hours in a 5% CO2 incubator (37° C.). The tubes formed in the collagen gel of each well were stained by the MTT, the tube images were loaded into a computer (Macintosh), and the total length of the tubes was determined by image analysis software “MacScope” (purchased from Mitani Corp.). The ratio of the total length of the tubes formed in the well containing the test substance with respect to the total length of the tubes formed in the well containing no test substance was expressed as a percentage, and the concentration of each test substance required for 50% inhibition of tube formation (IC50) was determined from the ratio value.

As to `CCN1CCN(CCCOc2cc3nccc(Oc4ccc(NC(=O)Nc5ccc(OC)cc5)cc4)c3cc2C#N)CC1` [Example 53, N-(4-(6-Cyano-7-(3-(1-(4-ethyl)piperazino)propoxy)-4-quinolyl)oxyphenyl)-N′-(4-methoxyphenyl)urea], in experiment [1], the “number of tubes formed in the fibrin gel (score) at 0.01 μM” value (shortened to “number of tubes formed … at 0.01 μM”) is reported as “+++”, the “number of tubes formed in the fibrin gel (score) at 0.1 μM” value (shortened to “number of tubes formed … at 0.1 μM”) is given as “+/−” and the “number of tubes formed in the fibrin gel (score) at 1.0 μM” value (from here on “number of tubes formed … at 1.0 μM”) is given as “−”. Besides, in experiment [2], the IC50 came out at 9.9 nM.

For `COc1ccc(NC(=O)Nc2ccc(Oc3ccnc4cc(OCCOCCO)c(C#N)cc34)cc2)cc1` [Example 72, N-(4-(6-Cyano-7-(2-(2-hydroxyethoxy)ethoxy)-4-quinolyl)oxyphenyl)-N′-(4-methoxyphenyl)urea], in experiment [1], the “number of tubes formed … at 0.01 μM” value is “+++”, the “number of tubes formed … at 0.1 μM” value is reported as “−” and the “number of tubes formed … at 1.0 μM” value was “−”. Further, the IC50 in experiment [2] stood at 22 nM.

As for `CS(=O)(=O)c1cccc(NC(=O)Nc2ccc(Oc3ccnc4cc(OCCCN5CCOCC5)c(C#N)cc34)cc2)c1` [Example 74, N-(4-(6-Cyano-7-(3-(4-morpholino)propoxy)-4-quinolyl)oxyphenyl)-N′-(3-(methylsulfonyl)phenyl)urea], in experiment [1], the “number of tubes formed … at 0.01 μM” value is reported as “++”, the “number of tubes formed … at 0.1 μM” value was “−” and the “number of tubes formed … at 1.0 μM” value was “−”. The IC50 in experiment [2] is 5.9 nM.

Turning to `CCN(CC)CCCOc1cc2nccc(Oc3ccc(NC(=O)Nc4ccccc4)cc3)c2cc1C#N` [Example 75, N-(4-(6-Cyano-7-(3-(diethylamino)propoxy)-4-quinolyloxy)phenyl)-N′-phenylurea], in experiment [1], the “number of tubes formed … at 0.01 μM” value was “+++”, the “number of tubes formed … at 0.1 μM” value is “+/−” and the “number of tubes formed … at 1.0 μM” value is recorded as “−”. The IC50 in experiment [2] stood at 1.4 nM.

As for `N#Cc1cc2c(Oc3ccc(NC(=O)Nc4ccc(F)cc4F)c(F)c3)ccnc2cc1OCc1ccccc1` [Example 81, N-(4-(6-Cyano-7-benzyloxy-4-quinolyl)oxy-2-fluorophenyl)-N′-(2,4-difluorophenyl)urea], in experiment [1], the “number of tubes formed … at 0.01 μM” value is “++”, the “number of tubes formed … at 0.1 μM” value is recorded as “−” and the “number of tubes formed … at 1.0 μM” value was “−”. Also, the IC50 in experiment [2] was 1.8 nM.

On to `CCN(CC)CCOc1ccc(-c2cc3c(Oc4ccc(NC(=O)NC5CC5)c(Cl)c4)ncnc3[nH]2)cc1` [Example 153, 1-(2-Chloro-4-{6-[4-(2-diethylaminoethoxy)-phenyl]-7H-pyrrolo[2,3-d]pyrimidin-4-yloxy}phenyl)-3-cyclopropylurea], for which, in experiment [1], the “number of tubes formed … at 0.01 μM” value is “+/−”, the “number of tubes formed … at 0.1 μM” value is “−” and the “number of tubes formed … at 1.0 μM” value is recorded as “−”. Besides, the IC50 in experiment [2] is 0.02 nM.

For the molecule `O=C(Nc1ccc(Oc2ncnc3[nH]c(-c4ccccc4)cc23)cc1)Nc1cccc(F)c1` [Example 172, 1-(3-Fluorophenyl)-3-[4-(6-phenyl-7H-pyrrolo[2,3-d]pyrimidin-4-yloxy)phenyl]urea], in experiment [1], the “number of tubes formed … at 0.01 μM” value is listed as “+”, the “number of tubes formed … at 0.1 μM” value was “+/−” and the “number of tubes formed … at 1.0 μM” value is “+/−”.

Regarding `O=C(CCCN1CCC(O)CC1)Nc1cc(Oc2ccc3c(ccn3C(=O)Nc3ccccc3)c2)ccn1` [Example 189, N1-Phenyl-5-[(2-{[4-(4-hydroxypiperidino)butanoyl]amino}-4-pyridyl)oxy]-1H-1-indolecarboxamide], in experiment [1], the “number of tubes formed … at 0.01 μM” value was “+/−”, the “number of tubes formed … at 0.1 μM” value is “−” and the “number of tubes formed … at 1.0 μM” value is on record as “−”. Further, the IC50 in experiment [2] was 0.3 nM.

For `O=C(Nc1cc(Oc2ccc3c(ccn3C(=O)NC3CC3)c2)ccn1)C1CC1` [Example 212, N1-Cyclopropyl-5-({2-[(cyclopropylcarbonyl)amino]-4-pyridyl}oxy)-1H-1-indolecarboxamide], in experiment [1], the “number of tubes formed … at 0.01 μM” value is on record as “+/−”, the “number of tubes formed … at 0.1 μM” value was “−” and the “number of tubes formed … at 1.0 μM” value is on record as “−”.

Turning to `COc1cc2nccc(Sc3ccc(NC(=O)Nc4ccc(F)cc4)s3)c2cc1C(N)=O` [Example 245, 4-(5-(3-(4-Fluorophenyl)ureido)thiophen-2-ylsulfanyl)-7-methoxyquinoline-6-carboxamide], in experiment [1], the “number of tubes formed … at 0.01 μM” value is “+/−”, the “number of tubes formed … at 0.1 μM” value is given as “−” and the “number of tubes formed … at 1.0 μM” value is “−”.

Take `CCN(CC)CCCOc1cc2nccc(Oc3ccc4c(ccn4C(=O)NC4CC4)c3)c2cc1C#N` [Example 298, 5-[6-Cyano-7-(3-diethylaminopropoxy)quinolin-4-yloxy]indole-1-carboxylic acid cyclopropylamide]: in experiment [1], the “number of tubes formed … at 0.01 μM” value was “+/−”, the “number of tubes formed … at 0.1 μM” value is reported as “−” and the “number of tubes formed … at 1.0 μM” value is “−”. Besides, the IC50 in experiment [2] worked out at 0.7 nM.

For `COc1cc2nccc(Oc3ccc(NC(=O)NC4CC4)c(Cl)c3)c2cc1C(N)=O` [Example 368, 4-(3-Chloro-4-(cyclopropylaminocarbonyl)aminophenoxy)-7-methoxy-6-quinolinecarboxamide], in experiment [1], the “number of tubes formed … at 0.01 μM” value is “−”, the “number of tubes formed … at 0.1 μM” value is on record as “−” and the “number of tubes formed … at 1.0 μM” value was “−”. For the same molecule, in experiment [2], the IC50 was 5.4 nM.

In the case of `COc1cc2nccc(Oc3ccc(NC(=O)NC4CC4)c(Cl)c3)c2cc1C(=O)NCCF` [Example 415, N6-(2-Fluoroethyl)-4-(3-chloro-4-(((cyclopropylamino)carbonyl)amino)phenoxy)-7-methoxy-6-quinolinecarboxamide], in experiment [1], the “number of tubes formed … at 0.01 μM” value was “+/−”, the “number of tubes formed … at 0.1 μM” value is listed as “−” and the “number of tubes formed … at 1.0 μM” value is reported as “−”. The IC50 in experiment [2] worked out at 3.8 nM.
